Reference: patent US9532997B2, “Compositions and methods for promoting intestinal stem cell function” (Whitehead Institute for Biomedical Research, priority 2012, dated 2017)
“Also recorded” adds a separate entry of the source.

Tests used:
AL and CR-derived crypts = assay: Crypt culture organoid formation with agent added to culture media; format: cell-based, mice; conditions: for organoid forming capacity of AL and CR-derived crypts: 100 nM, FIG. 4h
Experimental: Small intestines were removed and the fat/mesentery was dissected away. The intestinal lumen was washed with ice cold PBS (Mg—/Ca—) using a 18 G feeding needle (Roboz FN-7905) until the intestines appeared white/pink. They were then opened longitudinally. The mucous was removed by gently rubbing the intestine between fingers in cold PBS. The intestines were cut into 3 to 5 mm fragments and placed into 50 ml conical tubes that were fill with ice cold 30 ml of PBS (Mg—/Ca—)/EDTA (10 mM). The samples were incubated and shook intermittently on ice for 30 minutes continuously discarding and replacing (at least 3 times) the supernatant. The fragments were then continually resuspended with ice cold 30 ml PBS (Mg—/Ca—)/EDTA (10 mM) and intermittently shook on ice for 10 minutes, discarding the supernatant again for 3 times. The fragments were resuspended again with ice cold 30 ml PBS (Mg—/Ca—)/EDTA (10 mM) and incubated and intermittently shook while waiting on ice for 20 to 40 minutes. The samples were then triturated with a 10 ml pipette 1 to 2 times, and the contents were filtered twice through a 70-μm mesh (BD Falcon) into a 50 ml conical tube to remove villous material and tissue fragments. At this point the suspension was mainly composed of crypts. Crypts were removed from this step for crypt culture experiments and embedded in matrigel with crypt culture media. For ISC isolation, the crypt suspensions were centrifuged for 5 minutes at 250 g (4 C or room temperature). The pellets were gently resuspended in 1.0 ml of undiluted TrypLE Express (Invitrogen)+120 μl of DNase I (10 U/μl, Roche) and transferred to 15 ml conical tubes. The samples were incubated in a 32° C. water bath for 1.25 to 2 minutes, were not titurated, and were then placed on ice. 12 ml of cold SMEM was added to each sample and were gently triturated twice. […]
Isolated crypts were counted and embedded in matrigel (BD Bioscience 356231 growth factor reduced) that contains 1 μM Jagged (Ana-Spec) at 5-10 crypts/μl and cultured in a modified form of medium as described in^3. […]

mTORC1 = target: T1, mTORC1 (Mus musculus, UniProt P26883+Q9JLN9); assay: Phospho-S6 (P-S6) immunostain as mTORC1 reporter in intestine / sorted Paneth cells; format: in vivo, mice
T1 construct: from tissue; host or cells: mouse small intestine sections, isolated crypts and sorted Paneth cells
Description: Mice were housed in the Unit for Laboratory Animal Medicine at the Whitehead Institute for Biomedical Research. Lgr5-EGFP-IRES-CreERT2 mice (Strain name: B6.129P2-Lgr5tm1(cre/ERT2)Cle/J, Stock Number: 008875) were purchased from Jackson Laboratories. UbiquitinC-CreERT2 mice were obtained from the Jackson Laboratory (Strain Name: B6; 129S-Tg(UBC-cre/ERT2)1Ejb/J, Stock Number: 007001). Rictor floxed mice were generated as described in^27 and backcrossed to C57BL/6 for at least 6 generations. TSC1^loxp/loxp mice were the generous gift of D. Kwiatkowski (Harvard Medical School) and backcrossed to C57BL/6 for at least 6 generations. Rosa26-CreERT2 mice (Rosa26 or R26) were obtained from the Jackson Laboratory (Strain 15 Name: B6.129-Gt(ROSA)26Sor^iml(cre/ERT2)Tyj/J, Stock Number 008463). CR was achieved by providing individual or paired mice a daily portion of a chow diet fortified with vitamins and minerals amounting to 60% of the daily food intake of their ad libitum counterparts^20. All adult mice used in CR experiments were between the ages of 10 to 24 weeks and were sacrificed prior to their daily feeding. Rictor or TSC1 was excised by treatment with tamoxifen suspended in corn or sunflower seed oil (Spectrum) at a concentration of 10 mg/mL, and 200 μl per 25 g of body weight was injected intraperitoneally into mice once daily for 5-7 days. […] Mice were allowed to recover for at least 7 days after the last tamoxifen injection prior to any experiments. In vivo fate mapping in Lgr5-EGFP-IRES-reERT2; Rosa26loxpstoploxp-LacZ compound mice was done with a single injection of tamoxifen given at 200 μl per 25 g. As described previously^28, Rapamycin (LC Laboratories) was administered by intraperitoneal injection for 7 to 28 consecutive doses at 4 mg/kg. It was reconstituted in absolute ethanol at 10 mg/ml and diluted in 5% Tween-80 (Sigma) and 5% PEG-400 (Hampton Research) before injection. The final volume of all injections was 200 μl. Regular insulin (Lilly) was administered at 0.75 U/kg diluted in PBS 20 minutes prior to sacrificing fasted mice. […]

Bst-1 = target: T2, Bst-1 (Mus musculus, UniProt Q64277); assay: Bst-1 siRNA knock-down in CR-derived crypts, organoid formation; format: cell-based, mice; conditions: cADPR added to siRNA-treated crypts
T2 construct: endogenous in cells; host or cells: primary small-intestinal crypts from calorie-restricted mice, cultured in matrigel
T2 sequence (Q64277 25-286): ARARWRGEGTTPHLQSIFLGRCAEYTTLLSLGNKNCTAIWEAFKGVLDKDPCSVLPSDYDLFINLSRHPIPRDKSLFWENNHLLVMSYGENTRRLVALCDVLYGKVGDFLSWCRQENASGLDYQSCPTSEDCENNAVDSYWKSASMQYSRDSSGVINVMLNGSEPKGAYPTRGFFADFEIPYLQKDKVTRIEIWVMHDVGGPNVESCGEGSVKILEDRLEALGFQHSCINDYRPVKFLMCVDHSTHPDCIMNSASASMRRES
Experimental: Isolated ISCs or Paneth cells were centrifuged for 5 minutes at 250 g and then resuspended in the appropriate volume of crypt culture medium (500-1000 cells/μl) supplemented with 1×N2 (Invitrogen), 1×B27 (Invitrogen), 100 ng/ml Wnt-3A (R&D), and with additional 500 ng/ml R-Spondin to yield 1 μg/ml final concentration. ISCs were then seeded into matrigel (BD Bioscience 356231 growth factor reduced) containing 1 μM Jagged (Ana-Spec) up to 5,000-10,000 cells/30-50 μl. 30 μl drops of 65% matrigel were plated onto a flat bottom 48-well plate (Corning 3548) and then Paneth cells were added at the same cell count to the top of the matrigel drop. Alternatively, ISCs and Paneth cells were mixed after sorting in a 1:1 ratio, centrifuged, and then seeded into matrigel. The matrigel drops with ISCs and Paneth cells were allowed to solidify for 20 to 30 minutes in a 37° C. incubator. […] Organoid bodies were quantitated on days 3, 7, and 9 days of culture, unless otherwise specified. In subcloning experiments, either individual or cultures of organoids were manually disrupted as indicated in the text on day 7-9 by rigorous tituration and replated into fresh matrigel; these secondary organoid bodies were quantitated on day 18 after initiation of the primary cultures. […]

**Q.** Which “organoid forming capacity of AL and CR-derived crypts” value (AL and CR-derived crypts) does the source give for `OCCN(CCO)c1nc(N2CCCCC2)c2nc(N(CCO)CCO)nc(N3CCCCC3)c2n1` [Dipyridamole] here?
**A.** The value was “reduced the organoid forming capacity of AL and CR-derived crypts to a similar level”.

**Q.** What about the “organoid forming capacity of AL and CR-derived crypts” value (AL and CR-derived crypts; listed as dipyridamole) of the same compound?
**A.** Its value is “reduced the clonogenicity of CR and AL-derived crypts to same level”.

**Q.** For “insulin: Regular insulin (Lilly) administered at 0.75 U/kg to fasted mice”, which “P-S6 in sorted Paneth cells from fasted mice” value (mTORC1; 20 minutes after injection, FIG. 2b) is on record?
**A.** Its value is “induced”.

**Q.** And the “mTORC1 activity (P-S6) in Paneth cells” value (mTORC1; fasted mice, insulin 0.75 U/kg, FIG. 2a)?
**A.** Its value is “activates mTORC1 in Paneth cells”.

**Q.** `N=c1c2ncn3c2ncn1[C@@H]1O[C@H](COP(=O)(O)OP(=O)(O)OC[C@H]2O[C@@H]3[C@H](O)[C@@H]2O)[C@@H](O)[C@H]1O` [cADPR, cyclic ADP ribose] was tested. Which “organoid forming potential (clonogenicity and size) of AL crypts” value (AL and CR-derived crypts; 50 μM added to culture media, FIG. 4e) did it give?
**A.** The value was “significantly improved the clonogenicity and size of AL-derived organoid bodies; also recorded: increased the organoid forming potential of AL crypts to an extent similar to those of CR crypts”.

**Q.** What about the “rescue of function of Bst-1 knock-down CR crypts” value (Bst-1) of the same compound?
**A.** Its value is “sufficient to rescue the function of these crypts”.
